Row | Structure (SMILES) | melting point [°C]
1 | CC(C)(C)OC(=O)N1CC(=O)CC1C(=O)O (configuration not stated) | 155 to 156
2 | CC1=C(C)C(=O)OC1=O | 96
3 | Cc1cccc2c1CC(C(=O)O)N(C(=O)OC(C)(C)C)C2 (racemic) | 142 to 144
4 | N#Cc1ccc(N)c(Cl)c1 | 101
5 | CCNc1nc(NC(C)C(C)C)nc(SC)n1 (configuration not stated) | 65
6 | CC(=O)OCC1OC(C(N)=O)C(OC(C)=O)C(OC(C)=O)C1OC(C)=O (configuration not stated) | 127 to 130
7 | Cc1cc(C)c(C(=O)O)c(C)n1 | 130 to 160
8 | CCCCCCCCCCCCCCCC(=O)NCCO | 98.5
9 | NCP(=O)(O)O | 300
10 | CCCCCCCCCCCCCCCCCCOC(C)=O | 34.5
11 | Clc1cc(Cl)c(Cl)c(Br)c1 | 59
12 | Cc1ccc2c(c1)C1C(C3C2C2(Cl)C(Cl)=C(Cl)C3(Cl)C2(Cl)Cl)C2(Cl)C(Cl)=C(Cl)C1(Cl)C2(Cl)Cl (configuration not stated) | 160 to 165
13 | CC(C)(C)c1cc(N)[nH]n1 | 60 to 62
14 | CC(=O)CO | -17
15 | CCOC1Oc2ccc(OS(C)(=O)=O)cc2C1(C)C (configuration not stated) | 71
16 | CCOC(=O)CCCCCCCCCCCCC(=O)OCC | 28 to 31
17 | CC(C)c1cc(C(=O)O)c(O)c(C(C)C)c1 | 117
18 | COc1ccc(N)cc1N | 67.5
19 | O=C(O)C(O)c1cc(F)cc(F)c1 (configuration not stated) | 136

Row | Structure (SMILES) | melting point [°C]
20 | CC12CCC(C(O)=C(Br)C1=O)C2(C)C (configuration not stated) | 188
21 | COc1ccc(C(=CC(=O)N2CCOCC2)c2ccc(Cl)cc2)cc1OC | 148
22 | O=[N+]([O-])c1ccc(C=Cc2ccc(C=Cc3ccc([N+](=O)[O-])cc3[N+](=O)[O-])cc2)c([N+](=O)[O-])c1 | 294
23 | Nc1ccc(S(=O)(=O)NCCO)cc1 | 97 to 99
24 | C=C1C(=O)C23C4CC5C(C)(C)CCC(O)C5(C(OC)O4)C2C(O)CC1C3O (configuration not stated) | 261
25 | O=C1C(=O)C(Br)=C(Br)C(Br)=C1Br | 143 to 148
26 | Nc1ccc2c(c1)CCC2=O | 184 to 186
27 | N#Cc1cc(F)c(Cl)nc1Cl | 91
28 | CC(C)Oc1cccc(NC(=O)c2ccccc2C(F)(F)F)c1 | 105
29 | N#Cc1cc(F)c(N)cc1F | 95 to 97
30 | Cc1n[nH]c(C)c1C(=O)O | 273 to 275
31 | NNC(=O)c1ccc[nH]1 | 232 to 235
32 | NNC(=O)C1CCCCC1 | 153 to 155
33 | CC(=O)OC[C@@H](OC(C)=O)[C@H](OC(C)=O)[C@H](OC(C)=O)[C@@H](OC(C)=O)c1nnn[nH]1 | 109
34 | COc1ccc2c(C(=O)c3ccc(Cl)cc3)c(C)n(CC(=O)O)c2c1 | 242
35 | COc1ccc(C2=CCC3(C)C(CCC4C3CCC3(C)C(OC(C)=O)CCC43)C2)cc1 (configuration not stated) | 177 to 180
36 | C=C/C=C(C)/C=N/Nc1ccc([N+](=O)[O-])cc1[N+](=O)[O-] | 171
37 | CC(C)(O)CCl | -20
38 | Clc1c(Cl)c(Cl)c2nccnc2c1Cl | 190

Row | Structure (SMILES) | melting point [°C]
39 | COC(=O)C1Cc2c3c(c4c(c2CC1C(=O)OC)CC(C(=O)OC)C(C(=O)OC)C4)CC(C(=O)OC)C(C(=O)OC)C3 (configuration not stated) | 261 to 263
40 | OCc1cccc(N2CCOCC2)c1 | 51 to 54
41 | CC(CC(C)(C)O)OC(O)C(Cl)(Cl)Cl (configuration not stated) | 103
42 | O=Cc1cc(O)cc(O)c1 | 160
43 | CCOC(=O)C1C(C)=NN=C1N (configuration not stated) | 54 to 56
44 | Cc1ccc(S(=O)(=O)N2CCCN(S(=O)(=O)c3ccc(C)cc3)CCN(S(=O)(=O)c3ccc(C)cc3)CCC2)cc1 | 238
45 | ClCc1ccc2c(c1)OCO2 | 20.5
46 | Cc1oncc1C(=O)O | 147
47 | C1SCSCS1 | 220
48 | CC(C)(C)OCC1CO1 (configuration not stated) | -70
49 | Nc1c(Cl)cc(C(F)(F)F)cc1Cl | 36
50 | COC(=O)c1c(C)oc(C)c1S(=O)(=O)Cl | 70 to 71
51 | CSc1nsc(S)n1 | 143 to 147
52 | O=C(O)CCc1ccc2c(c1)CCC(=O)N2 | 234
53 | CC(=O)C1CCC2C3CC=C4CC(O)CCC4(C)C3CCC12C (configuration not stated) | 193
54 | CCSc1ncccc1C(=O)Cl | 53 to 55
55 | O=C(NC1CCCCC1)C(Br)(C(F)(F)F)C(F)(F)F | 87
56 | O=C(O)C1CCCC1 | 4
57 | NC(=O)OCC(Cl)(Cl)Cl | 64

Now from value to compound:

Row | melting point [°C] | Structure (SMILES)
58 | 81 | Sc1ccc2ccccc2c1
59 | 220 | CCOC(=O)C1=C(C)NC(=O)NC1c1ccccc1[N+](=O)[O-] (configuration not stated)
60 | 26 | Cc1ccc(N)c(Br)c1
61 | 151 | Nc1ccc(C=CC(=O)c2ccccc2)cc1
62 | 224 to 226 | Cc1nn(Cc2cccc(C(=O)O)c2)c(C)c1Br
63 | 216 | COc1cc(/C=N/N=C/c2ccc(OCc3ccccc3)c(OC)c2)ccc1OCc1ccccc1
64 | 23 to 25 | Cc1cc(Cl)ccc1[N+](=O)[O-]
65 | 58 | O=Cc1ccccc1-n1cccn1
66 | 72 | Cc1ccccc1NCCNc1ccccc1C
67 | > 320 | O=[N+]([O-])c1ccc(-c2nnc3n2CN(c2ccccc2)CS3)cc1
68 | 208 | O=C(O)c1ccc(N2C(=O)C3ON=C(C(=O)c4cccs4)C3C2=O)cc1 (configuration not stated)
69 | 114 | O=C1C(=Cc2ccccc2)SC(=S)N1CN1CCCCC1
70 | 87.6 | CCCCCCCCCCCCCCCC(=O)Oc1ccc(N=Cc2cccnc2)cc1
71 | 109 | COc1ccc(/C=C(\C#N)c2nc(-c3ccco3)cs2)cc1
72 | 140 to 142 | CCCCCCCCOc1ccc(NC(=O)c2ccc(C)cc2)cc1
73 | 220 | COC(=O)c1cc2cc3cc(C(=O)OC)c(C(=O)OC)cc3cc2cc1C(=O)OC
74 | 109 to 111 | O=Cc1csc2ccc(Cl)cc12
75 | 172 | NNc1nncc2ccccc12
76 | 105 | O=Cc1c2ccccc2cc2ccccc12
77 | 80 to 128 | CCCCOc1ccc(/C=N/c2ccc(C(C)=O)cc2)cc1
78 | 211 | O=C(Nc1ccccc1)c1cc(Cl)ccc1O
79 | 136 to 139 | Nc1c(Br)cc(Br)cc1C=O

Row | melting point [°C] | Structure (SMILES)
80 | 156 to 157 | O=Cc1cn(S(=O)(=O)c2ccccc2)c2ccccc12
81 | 42 | CCOc1ccccc1OCCBr
82 | 140 | CSc1nc(C=O)ccc1C#N
83 | 93 | Cc1cc(C(c2ccc(C)o2)c2ccc(C)o2)c(O)c([N+](=O)[O-])c1
84 | 178 | C(=N\CC/N=C/c1ccc2c(c1)OCO2)/c1ccc2c(c1)OCO2
85 | 235 | COc1ccc(-c2csc(/C(C#N)=C\c3cccnc3)n2)cc1
86 | 120 to 122 | CCOC(=O)c1c(-c2ccc(Br)cc2)csc1N
87 | 144 to 145 | COc1ccc(C(=O)C=Cc2ccc(-c3ccccc3OC)o2)cc1OC
88 | 300 | O=C(O)C1=CC(=C(c2ccc(O)c(C(=O)O)c2)c2ccc(O)c(C(=O)O)c2)C=CC1=O
89 | 86 to 91 | BrCc1ccc(-n2cccc2)cc1
90 | 54 | CC(=O)CCc1oc2ccccc2c1-c1ccc(C)o1
91 | 167 | COc1ccc(-c2cc3nc(C)cc(C(F)(F)F)n3n2)cc1
92 | 76 | COc1ccc(OC)c(C(=O)CCCCC(=O)O)c1
93 | 7 to 9 | O=C(c1ccccc1)C1CC1
94 | 189 | O=C1CC(c2ccc([N+](=O)[O-])cc2)=NN1c1ccccc1
95 | 88 to 90 | O=C1OC(c2ccccc2)Cc2ccccc21 (configuration not stated)
96 | 97 to 98 | CCOc1nc2ccccc2c(=O)n1N
97 | 250 to 252 | COc1ccc(Br)cc1/C=c1\sc2nc3ccccc3n2c1=O
98 | 131 to 133 | CC(CC1CC(=O)c2c3c(c4ccccc4c2O1)O[C@@H]1CC(=O)O[C@H]31)O[Si](C)(C)C(C)(C)C (some centres not stated)
99 | 238 | O=C(c1ccc(-c2ccccc2)cc1)c1ccc(-c2ccccc2)cc1
100 | 261 | N#CC1=C(N)OC2=C(CCCC2)C1c1ccccc1 (configuration not stated)
101 | 102 | CN1c2ccccc2Sc2ccccc21

Row | melting point [°C] | Structure (SMILES)
102 | 188 | COc1cccc(C(=O)N(NC(=O)c2ccccc2)C(C)(C)C)c1
103 | 250 | O=C(O)c1cc(-c2ccccc2)n[nH]1
104 | 146 to 149 | SC1=NC2(CCCCC2)NN1c1ccccc1
105 | 180 to 181 | CC1=NN(c2ccccc2)C(=O)C1=CC1C(=O)N(c2ccccc2)N=C1C (configuration not stated)
106 | 103 | O=C(Oc1ccccc1)n1c(C(F)(F)F)nc2cc(Cl)c(Cl)cc21
107 | 181 | O=[N+]([O-])c1cc([N+](=O)[O-])c(C(Cl)C(Cl)c2ccccc2)cc1/C=C\c1ccccc1 (configuration not stated)
108 | 93 | Clc1ccc2c(Cl)ccnc2c1
109 | 57 to 63 | CC(C)(C)OC(=O)N1OC1c1ccc(C#N)cc1 (configuration not stated)
110 | 145 | CN(C)c1ccc(CNC(=O)c2cc([N+](=O)[O-])cc([N+](=O)[O-])c2)cc1
111 | 56 to 57 | Clc1cc(Cl)nc(Cc2ccccc2)n1
112 | 79 to 81 | OCc1csc2ccc(Br)cc12
113 | 60 | CCC(=O)c1ccc2ccccc2c1
114 | 71 | Cc1cc(-c2ccc(N=C=O)c(C)c2)ccc1N=C=O
115 | 118 to 120 | COC(=O)c1ccc2snnc2c1
116 | 210 | O=[N+]([O-])c1ccc2[nH]ncc2c1
117 | -8 | C=C1N(C)c2ccccc2C1(C)C
118 | 108 to 110 | O=C(O)c1cccc(CSc2cccs2)c1
119 | 251 to 256 | N[C@@H](CCCCNC(=O)c1ccccc1)C(=O)O
120 | 173 | O=C(c1ccc2ccccc2c1)c1noc(-c2ccc(Br)cc2)c1S(=O)(=O)c1ccccc1
121 | 82 | CC1CCC(C)(C(=O)COC(=O)c2ccccc2)C1(C)C (configuration not stated)
122 | 270 to 271 | O=C1C(=C2C=Cc3cc(-c4ccccc4)ccc3N2)C(=O)c2ccccc21

— a melting point compilation (Tetko et al.)
